Compound | melting point
CN1C2CCC1CC(NC(=O)OC(C)(C)C)C2 (stereo not drawn) | 79 to 81 °C
CCCCCS(=O)(=O)NC(=O)CCCCc1cc(OCCCC)nn1Cc1ccc(Cl)cc1Cl | 91 to 93 °C
COc1ccc(S(=O)(=O)C(C)(Cc2ccc(OCCCN3CCC(c4cccc(Cl)c4)CC3)cc2)C(=O)NO)cc1 (stereo not drawn) | 122 °C
Nc1cc(Cl)cc(Cl)c1C(=O)NCC1CCCCC1 | 168 to 171 °C
CC(C)CN(Cc1csc(C(C)C)n1)C(=O)N[C@H](C(=O)N[C@@H](Cc1ccccc1)C[C@H](O)[C@H](Cc1ccccc1)NC(=O)OCc1cncs1)C(C)C | 60 to 61 °C
CCCSc1sc(C(=O)OCC)c2c1C(=O)C(Br)CC2 (stereo not drawn) | 93 to 94 °C
CCOC(=O)c1c(CS(=O)(=O)c2nccn2C)nc2cc(OC)c(OC)cc2c1-c1ccc(OC)c(OC)c1 | 183 to 184 °C
COCCNC(N)=Nc1nc(-c2cccc(CNC(C)=O)c2)cs1 | 123 to 124 °C
Cc1nc2ccnn2c2c1CCN2C(C)(C)C | 144 to 146 °C
O=[N+]([O-])c1cccc(-c2cccc([N+](=O)[O-])n2)n1 | 206 to 207 °C
Cc1cccc2c1CCNC2=O | 141 to 143 °C
Cc1cc(=O)n(-c2cccc(Cl)c2)c(=O)[nH]1 | 250 to 252 °C
CC(C)CCC(=O)N[C@@H](CC(C)C)C(=O)N[C@@H](C(C)C)[C@@H](O)c1c(-c2ccccc2)c1=O | 148 to 151 °C
CN1C(=O)[C@H](NC(=O)/C=C/c2ccc(Br)cc2)N=C(c2ccccc2)c2ccccc21 | 121 to 124 °C
CC(=O)NCCC1CCc2ccc(O)cc21 (stereo not drawn) | 107 to 108 °C
O=C(CBr)c1cc(-c2cccc(C(F)(F)F)c2)nc(C(F)(F)F)c1 | 87 to 89 °C
CCNC1C(C)CN(c2c(F)cc3c(=O)c(C(=O)O)cn(C4CC4)c3c2OC)CC1C (stereo not drawn) | 250 to 252 °C
CCCOC1C(O)C(CO)OC1n1cnc2c(NC(=O)C(C)C)nc(NC(=O)C(C)C)nc21 (stereo not drawn) | 140 to 142 °C
CC(C)(C)OC(=O)N1CCC(n2c(=O)[nH]c3ccccc32)CC1 | 161 to 163 °C
O=C(O)CC(CCCc1ccc(O)cc1)CC(=O)O | 107 to 108 °C
O=S(=O)(CC(O)(CO)c1ccccc1)c1ccccc1 (stereo not drawn) | 137 °C
N#Cc1ccc(Cn2cc(C=C3C(=O)NC(=O)NC3=O)c3ccccc32)cc1 | > 300 °C
CC(=O)N[C@H]1CC[C@H](c2ccc(N)cc2)CC1 | 195 to 196 °C
CC(C)(C)c1cc(P(c2ccccc2)c2cc(C(C)(C)C)c(O)c(C(C)(C)C)c2)cc(C(C)(C)C)c1O | 138 to 140 °C

Compound | melting point
N#Cc1cc(N)ccc1N1CCCCC1 | 148 to 149 °C
CC1(C)C(=O)Nc2ccc(C3=NNC(=O)C4CC34)cc21 (stereo not drawn) | 334 to 335 °C
CC(=O)NCc1ccc(CN2CCN(c3cnccn3)CC2)cc1 | 118 to 119 °C
COC(=O)c1nc2cccc(C(F)(F)F)c2c(O)c1C(=O)OC | 180 to 182 °C
CCCCCCCCCCCc1nc(N)n[nH]1 | 128 to 132 °C
FC(F)c1cc(-c2ccc(C(F)(F)F)cc2)nc2c(I)ncn12 | 159 °C
OCCCn1c(C2CCCCC2)nc2cc(Cl)ccc21 | 95 °C
Clc1ccnc2[nH]c3ccc(Br)cc3c12 | > 220 °C
CCCCOC(=O)NC1(c2ccccc2Cl)CCCCC1=O (stereo not drawn) | 130 to 132 °C
Cc1n[nH]c(C)c1Oc1cc(C#N)cc(C#N)c1 | 182 to 185 °C
CCCCCc1ccc(C(=O)CCCCC(=O)O)cc1 | 84 to 86 °C
CCc1ccc(C(=O)C(=O)O)[nH]1 | 126 to 128 °C
COC(=O)/C(C#N)=C/c1cc(OC)c(OCCCl)cc1[N+](=O)[O-] | 157 to 160 °C
CC1(C)CC(=O)c2c(SCCO)sc(-c3cc[nH]n3)c2C1 | 182 to 185 °C
O=C(O)CN1CC(=O)N(Cc2cccc([N+](=O)[O-])c2)C1=O | 165 to 166 °C
Nc1nnc(Cc2cccc(C(F)(F)F)c2)s1 | 174 to 176 °C
O=C1OC(=O)c2cc3c(cc21)CCOC3 | 156 to 158 °C
COc1ccc2c(c1OC)CCN(Cc1ccc(-c3ccc(-c4cccc(N)n4)cc3)cc1)C2 | 205 to 209 °C
Cc1cc(SC2=C(O)CC(CCc3ccsc3CO)(C(C)C)OC2=O)c(C(C)(C)C)cc1CO (stereo not drawn) | 87 to 90 °C
CC(C)(C)OC(=O)N1CCC[C@H]1CNc1ccc2ncc(I)n2n1 | 138 to 139 °C
CCCCc1cccc2[nH]c(C(=O)OCC)cc(=O)c12 | 132 to 133 °C
CCCN1CCN(c2cccc3c2C[C@H](NC(C)=O)CC3)CC1 | 139 to 140 °C
C#CCOc1cc(C(=O)O)cc([N+](=O)[O-])c1C(=O)c1ccccc1 | 169 to 172 °C
COc1ccccc1NC(=O)NC1CC(N)(C(=O)O)C2C(C(=O)O)C12 (stereo not drawn) | > 250 °C

Continued, values first:

melting point | Compound
230 to 232 °C | O=C1CCC(c2ccc(OCCCN3C(=O)c4ccccc4C3=O)c(Cl)c2)=NN1
94 to 96 °C | COC(CCSCC=O)=NNS(=O)(=O)c1ccc(C)cc1
164 °C | CNC(=O)NC(=S)N1N=C(c2ccc([N+](=O)[O-])cc2)c2cc3c(cc2CC1C)OCO3 (stereo not drawn)
146 to 150 °C | CSc1ccc(/C=C2/C(C)=C(CC=NO)c3cc(F)ccc32)cc1
110 to 111 °C | CC(C)(c1ccc(OCCO)cc1)c1ccc(OCCO)cc1
157 to 159 °C | COc1ccc(S(=O)(=O)C(CCCCc2ccccc2)CC(=O)NO)cc1OC (stereo not drawn)
149 to 150 °C | Cc1c(CC(=O)O)oc2ccc(Cl)cc12
168 to 170 °C | CSCC(O)CN1C(=O)C(CCC(=O)O)(NC(=O)c2ccc(Cl)c(Cl)c2)c2ccccc21 (stereo not drawn)
279 to 285 °C | COC(=O)c1ccc2c(c1)CN(c1cc3c(cc1F)c(=O)c(C(=O)O)cn3C1CC1)C2
226 to 227 °C | O=c1c(Cc2cccnc2)cc2cccnc2n1-c1cccc([N+](=O)[O-])c1
75 to 75.7 °C | CCOC(=O)c1ccc(OCc2nc(C)c(C)nc2C)cc1
174 to 176 °C | O=C(c1ccc(C2=CCCc3ccccc32)cc1Cl)N1Cc2cccn2Cc2ccccc21
214 to 220 °C | Cc1nc2ccc(S(=O)(=O)n3c(CCCC(=O)O)cc4cc(C(F)(F)F)ccc43)cc2o1
> 250 °C | O=C(Nc1ccncc1)c1n[nH]c2ccc(-c3cncc4ccccc34)cc12
169 to 170 °C | CC(=O)COc1c(-c2ccc(S(C)(=O)=O)cc2)cnn(-c2ccc(F)c(F)c2)c1=O
57 to 60 °C | NCCNC(=O)c1ccc(F)cc1
53 to 56 °C | CN1Cc2cscc2N(CCc2ccccc2)c2ccccc21
153 to 154 °C | CC(=O)c1ccc(OCc2cccc(N)c2)cc1O
315 °C | Oc1ccc2c(c1O)C(=Cc1ccnc3ccccc13)c1ccccc1-2
128 to 131 °C | Fc1ccc(-c2cnc3nc(C(F)(F)F)cnn23)cc1-c1ccccn1
128 °C | CNCC1=C(n2ccccc2=O)c2cc([N+](=O)[O-])ccc2OC1(C)C
181 °C | COc1ccc(-c2nc(Sc3ccc(C)cc3)[nH]c2-c2ccc(OC)cc2)cc1
156 to 158 °C | COCCOc1cc2cc(C(=O)OC)c(C(=O)OC)c(-c3ccncc3)c2cc1OC
287 to 288 °C | CC1(C)CCC(C)(C)c2cc(-c3cc(-c4ccc(C(=O)O)cc4)ccc3-c3ccccc3)ccc21
130 to 135 °C | CNC(=O)NCCn1c(-c2ccc(CN3CCOCC3)cc2C)csc1=Nc1ccc(F)c(C)c1

melting point | Compound
132 to 134 °C | CC1=C(c2cccc(C(F)(F)F)c2)n2ncc(C#N)c2N(C(=O)CN2CCN(c3ccccn3)CC2)C1
146 to 147 °C | NC(=O)N(O)CCNC(=O)c1cccc(Oc2ccc(Cl)cc2)c1
266 to 268 °C | CC1Oc2ccc(CN3CCN(c4ccc(C#N)cc4)CC3)cc2NC1=O (stereo not drawn)
71 to 72 °C | Cc1cc(OCC(=O)c2ccc(C(C)C)cc2)c(C)c(C)c1Br
204 to 207 °C | COC1(c2cccc(S(=O)(=O)c3ccc4c(ccc(=O)n4C)c3)c2)CCOCC1
284 to 287 °C | N#Cc1cc2c(Nc3cccc(Cl)c3)ncnc2[nH]1
130 to 133 °C | Cc1cccc(S(=O)(=O)Cc2c(C(F)(F)F)n[nH]c2O)c1
180 to 181 °C | O=C1CCc2ccc(O)c(c2)Oc2ccc(cc2)C2OC2CO1 (stereo not drawn)
180 to 182 °C | COc1ccc(C(=O)C2C(=O)N(C(N)=O)c3ccc(Cl)cc32)s1 (stereo not drawn)
252 to 253 °C | COc1cc(COc2nn(-c3ccccc3)cc2/C=C2\SC(=O)NC2=O)ccc1OCc1nc(-c2ccco2)oc1C
144 °C | Cc1nc(-c2nn(Cc3ccccc3F)c3ccccc23)oc1CO
117 to 118 °C | Fc1c(F)c(F)c(C(Cl)=NNc2ccccc2)c(F)c1F
250 to 253 °C | COc1ccccc1-c1ccc(C(=O)O)cc1
75 to 79 °C | CC(=O)NCCOc1nc(-c2ccc(F)cc2C)c2ccc(=O)n(-c3c(F)cccc3F)c2n1
133 to 135 °C | CCOC(=O)c1ccc(-c2nc(COc3ccc(COc4nn(-c5ccccc5)cc4/C=C\c4csc(CC)n4)cc3OC)c(C)o2)o1
130 to 134 °C | Cc1cc(Cl)ccc1OCC(=O)N1Cc2ccc(C(=O)CCc3ccccc3)n2Cc2ccccc21
162 to 164 °C | CCOc1cc(Nc2cccc3c2C(=O)N(C2CCC(=O)NC2=O)C3=O)ccc1OC (stereo not drawn)
87 to 90 °C | CSc1cn(CC(C)N(O)C(N)=O)c2ccccc12 (stereo not drawn)
121 to 123 °C | CCCC(NS(=O)(=O)c1ccc(Cl)cc1)C(=S)Nc1ccc(CC(=O)OCC)cc1 (racemic)
88 to 90 °C | CSc1[nH]nc(-c2ccc(Cl)cc2F)c1C
162 to 164 °C | Cc1ccc(-c2c(C)c3cc(O)ccc3n2Cc2ccc(OCCN3CCCCC3)cc2)cc1
138 to 139 °C | CCOC(=O)C1CS(=O)(=O)c2c(C(=O)c3ccccc3)cc(Cl)cc21 (stereo not drawn)
76.1 to 79.9 °C | CC(C(=O)NCCCCn1cnc2c(N)nc3ccccc3c21)c1ccc(-c2ccccc2)c(F)c1 (stereo not drawn)
112 to 113 °C | COc1c(C)c2c(c(O)c1C/C=C(\C)CCC(=O)N1C(=O)OC[C@@H]1Cc1ccccc1)C(=O)OC2
> 230 °C | O=C1NCCCN1c1cc(C(c2cc(F)ccc2F)S(=O)(=O)c2ccc(Cl)cc2)c(Cl)cn1 (stereo not drawn)
